# Source: ChEMBL document CHEMBL5584334, “Discovery of a Covalent Inhibitor of Pro-Caspase-1 Zymogen Blocking NLRP3 Inflammasome Activation and Pyroptosis” (J Med Chem, 2024)
# The source made the active and inactive calls. The calls are words filed in the database; no cut-off is given here.
# Columns and labels:
# [1] = target: T1, Caspase-3 (Mus musculus) (UniProt P70677); assay: Inhibition of cisplatin induced caspase-3 activation in mouse J774.A1 cells at 0.5 uM preincubated for 30 mins followed by cisplatin addition and incubated overnight; format: cell-based
# T1 sequence (whole entry): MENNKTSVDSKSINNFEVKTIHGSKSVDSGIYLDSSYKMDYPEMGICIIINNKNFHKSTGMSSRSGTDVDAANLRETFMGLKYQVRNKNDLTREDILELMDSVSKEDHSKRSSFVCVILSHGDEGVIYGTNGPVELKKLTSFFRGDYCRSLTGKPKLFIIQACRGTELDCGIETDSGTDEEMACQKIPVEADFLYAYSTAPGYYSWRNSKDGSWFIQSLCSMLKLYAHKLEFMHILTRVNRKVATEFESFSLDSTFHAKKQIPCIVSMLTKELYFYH
# [2] = target: T2, Caspase-7 (Mus musculus) (UniProt P97864); assay: Inhibition of cisplatin induced caspase-7 activation in mouse J774.A1 cells at 0.5 uM preincubated for 30 mins followed by cisplatin addition and incubated overnight; format: cell-based
# T2 sequence (whole entry): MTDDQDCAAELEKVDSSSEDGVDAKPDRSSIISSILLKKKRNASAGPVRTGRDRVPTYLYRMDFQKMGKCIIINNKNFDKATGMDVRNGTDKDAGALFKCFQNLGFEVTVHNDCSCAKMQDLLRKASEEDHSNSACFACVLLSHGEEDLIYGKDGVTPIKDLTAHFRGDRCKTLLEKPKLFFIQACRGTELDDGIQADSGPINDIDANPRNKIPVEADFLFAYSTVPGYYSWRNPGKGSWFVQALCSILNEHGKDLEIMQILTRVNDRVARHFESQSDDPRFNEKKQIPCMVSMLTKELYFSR
# [3] = tested on: J774.A1; assay: Downregulation of inhibitor kappa B-alpha phosphorylation in mouse J774.A1 cells preincubated for 30 mins followed by LPS addition and measured after 2 hrs by Western blotting analysis; format: functional, cell-based; conditions: time 2.5 hrs
# [4] = tested on: J774.A1; assay: Downregulation of IKKalpha/beta phosphorylation in mouse J774.A1 cells preincubated for 30 mins followed by LPS addition and measured after 2 hrs by Western blotting analysis; format: functional, cell-based; conditions: time 2.5 hrs
# [5] = tested on: J774.A1; assay: Downregulation of p65 phosphorylation in mouse J774.A1 cells preincubated for 30 mins followed by LPS addition and measured after 2 hrs by Western blotting analysis; format: functional, cell-based; conditions: time 2.5 hrs
# [6] = target: T3, Caspase-1 (Mus musculus) (UniProt P29452); assay: Binding affinity to caspase-1 in LPS-induced mouse J774.A1 cells assessed as reduction in IL-1beta level at 0.5 uM preincubated with compound followed by nigericin addition; format: cell-based; conditions: time 3-24 hrs
# T3 sequence (whole entry): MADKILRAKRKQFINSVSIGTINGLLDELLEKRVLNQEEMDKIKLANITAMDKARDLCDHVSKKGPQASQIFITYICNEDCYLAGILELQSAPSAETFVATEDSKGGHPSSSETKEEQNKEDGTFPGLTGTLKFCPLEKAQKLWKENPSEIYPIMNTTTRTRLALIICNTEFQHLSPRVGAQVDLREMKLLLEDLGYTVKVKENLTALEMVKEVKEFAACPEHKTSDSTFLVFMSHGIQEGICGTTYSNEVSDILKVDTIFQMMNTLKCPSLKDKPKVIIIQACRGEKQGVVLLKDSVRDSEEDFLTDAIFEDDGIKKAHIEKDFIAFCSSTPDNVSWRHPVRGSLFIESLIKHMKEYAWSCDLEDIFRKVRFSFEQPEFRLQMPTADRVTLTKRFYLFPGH
# [7] = tested on: J774.A1; assay: Inhibition of pyroptosis in mouse J774.A1 cells assessed as reduction in number of annexin V and PI positive cells pretreated with LPS for 3 hrs followed by compound addition in presence of nigericin by flow cytometry analysis; format: functional, cell-based
# [8] = tested on: J774.A1; assay: Inhibition of pyroptosis in mouse J774.A1 cells assessed as reduction in LDH release at 0.5 to 2 uM pretreated with LPS for 3 hrs followed by compound addition in presence of nigericin; format: functional, cell-based; conditions: dose 0.5-2 µM
# [9] = tested on: J774.A1; assay: Inhibition of pyroptosis in mouse J774.A1 cells assessed as reduction in caspase-1 to GSDMD interaction at 0.5 uM pretreated with LPS for 3 hrs followed by compound addition in presence of nigericin by immunoprecipitation analysis; format: functional, cell-based
# [10] = tested on: J774.A1; assay: Inhibition of pyroptosis in mouse J774.A1 cells assessed as reduction in cleaved GSDMD expression pretreated with LPS for 3 hrs followed by compound addition in presence of nigericin by Western blotting analysis; format: functional, cell-based
# [11] = tested on: Mus musculus; assay: Anti-inflammatory activity in MSU/C18:0 free fatty acid induced ip dosed Kunming mouse model of gouty arthritis assessed as reduction in joint swelling preadministered with compound for 30 mins followed by MSU/C18:0 free fatty acid injection and measured after 24 hrs; format: functional, organism-based; conditions: time 24.5 hrs
Compound,inhibition [1],inhibition [2],Activity [3],Activity [4],Activity [5],Activity [6],inhibition [7],inhibition [8],inhibition [9],inhibition [10],Activity [11]
CCO[C@@H]1OC(=O)C[C@@H]1NC(=O)[C@@H]1CCCN1C(=O)[C@@H](NC(=O)c1ccc(N)c(Cl)c1)C(C)(C)C,inactive,inactive,Active,Active,Active,inactive,Active,Active,Active,Active,–
COc1cc2c(c(OC)c1OC)-c1ccc(OC)c(=O)cc1[C@@H](NC(C)=O)CC2,–,–,–,–,–,–,–,–,–,–,Active
